Source: PMC5855801, “Benzothiophenone Derivatives Targeting Mutant Forms of Estrogen Receptor-α in Hormone-Resistant Breast Cancers” (International Journal of Molecular Sciences, 2018)

Experiments:
ERβ LBD = ERβ LBD (Homo sapiens, UniProt Q92731); test: TR-FRET coactivator peptide displacement assay with ERβ-LBD; assay type: biochemical; conditions: purified ERβ LBD
Description: Given that tamoxifen acts as a pure antagonist of ERβ [34], the effect of VPC-16606 on ERβ and its corresponding implications in breast cancer will also need to be evaluated. Moreover, the role of ERβ in breast cancer biology is not yet clear, with some evidence pointing towards ERβ exerting proliferating effects in the absence of ERα [36].
Supplementary Materials: Benzothiophenone Derivatives Targeting Mutant Forms of Estrogen Receptor-α in Hormone-Resistant Breast Cancers
Figure S1. Effect of VPC-16606 on viability of PC3 cells as measured in the Presto Blue assay. […]
Figure S2. TR-FRET Assay showing displacement of Fluorescein labelled PGC1 α peptide by VPC-16606 upon incubation with ER β-LBD. OHT was used at 1µM. Error bars represent standard deviation for two independent experiments performed in triplicates. […]

[1] = tested on: TamR3 cells (tamoxifen-resistant MCF7-derived); test: Presto Blue cell viability assay, TamR3; assay type: cell-based, human; conditions: TamR3, 96 h, two-fold dilution starting at 50 µM
Experimental: The Presto Blue cell viability assay was used to assess the growth inhibitory potential of VPC-16606 on ERα^+ T47D, MCF7, ZR75-1 and TamR3 cells. They were treated for 96 h with a two-fold dilution range of the compound starting at 50 µM.
Cell viability was determined using the Presto Blue cell viability assay (Thermo Fisher Scientific, Waltham, MA, USA). Cells were seeded in clear bottom black-walled 96-well plates at a density of 5 × 10^3 cells/well in 100 μL of their respective media. On the following day, the cells were treated with test compounds (0.001–22.5 μM) in the presence of 1 nM E2 and incubated at 37 °C. After 96 h, 30 μL of Presto Blue reagent was added and incubated for 10 min at 37 °C. The fluorescent signal from viable cells was measured at 590 nm.

[2] = target: T1, progesterone receptor (PR) (Homo sapiens, UniProt P06401); test: Luciferase reporter selectivity assay in PC3 cells, PR; assay type: cell-based; conditions: 24 h
T1 construct: expressed in transfected cells; host or cells: PC3
T1 sequence (P06401 1-933): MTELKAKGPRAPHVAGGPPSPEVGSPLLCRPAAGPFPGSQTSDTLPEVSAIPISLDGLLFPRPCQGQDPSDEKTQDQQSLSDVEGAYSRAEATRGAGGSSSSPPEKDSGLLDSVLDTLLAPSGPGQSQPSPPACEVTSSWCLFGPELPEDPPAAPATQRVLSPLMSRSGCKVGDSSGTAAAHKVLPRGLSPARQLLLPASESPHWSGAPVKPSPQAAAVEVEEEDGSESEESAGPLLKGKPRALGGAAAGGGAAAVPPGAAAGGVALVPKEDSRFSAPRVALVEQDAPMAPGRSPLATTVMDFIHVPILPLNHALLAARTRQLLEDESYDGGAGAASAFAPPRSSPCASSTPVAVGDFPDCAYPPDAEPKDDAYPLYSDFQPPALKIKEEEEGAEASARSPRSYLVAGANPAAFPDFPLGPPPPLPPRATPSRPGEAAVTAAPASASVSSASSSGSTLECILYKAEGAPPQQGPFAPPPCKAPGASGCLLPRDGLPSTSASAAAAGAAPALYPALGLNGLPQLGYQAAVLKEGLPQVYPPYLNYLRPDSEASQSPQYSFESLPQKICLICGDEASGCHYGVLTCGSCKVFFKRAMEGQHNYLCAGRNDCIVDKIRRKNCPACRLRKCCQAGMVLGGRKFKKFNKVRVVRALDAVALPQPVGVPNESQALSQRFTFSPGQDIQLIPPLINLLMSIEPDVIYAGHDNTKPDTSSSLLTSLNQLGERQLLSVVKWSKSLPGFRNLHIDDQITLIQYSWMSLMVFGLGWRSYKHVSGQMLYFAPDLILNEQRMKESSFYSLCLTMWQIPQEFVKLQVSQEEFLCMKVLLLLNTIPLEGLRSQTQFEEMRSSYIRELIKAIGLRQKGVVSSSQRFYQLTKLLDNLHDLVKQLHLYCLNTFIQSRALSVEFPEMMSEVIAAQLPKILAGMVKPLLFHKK
Experimental: Figure 4 Further activity profile of VPC-16606. (A,B) Chromatin immunoprecipitation (ChIP) analysis of ERα binding to the pS2 enhancer, or the GAPDH promoter, in MCF7 cells. Where indicated, ERα was stimulated with 1 nM E2 or dimethyl sulfoxide (DMSO) alone, and the compound was administered at a 6 μM concentration. Sheared chromatin-protein complexes were precipitated with the ERα antibody, reverse cross-linked and analyzed by quantitative PCR. The results are normalized as fold enrichment over precipitation with a rabbit isotype control IgG antibody for each condition tested. Error bars indicate standard error of the mean (SEM) for 3 independent experiments performed in triplicates. Fold enrichment from the compound tested condition (ERα antibody) was statistically compared against DMSO + E2 with a two-tailed t-test (unpaired) *** indicates p-value <0.001. (C) Specificity of VPC-16606 was evaluated in the luciferase reporter assay. PC3 cells were transfected with plasmids expressing androgen receptor (AR), progesterone receptor (PR) or glucocorticoid receptor (GR) along with their responsive luciferase reporter constructs bearing androgen response element (ARE), progesterone response element (PRE) or glucocorticoid response element (GRE), respectively. […] Y-axis represents relative luminescence (RLU) after normalizing to constitutive renilla reporter. […]

Chain of ERβ LBD (Q92731 264-498 limits assumed, species assumed): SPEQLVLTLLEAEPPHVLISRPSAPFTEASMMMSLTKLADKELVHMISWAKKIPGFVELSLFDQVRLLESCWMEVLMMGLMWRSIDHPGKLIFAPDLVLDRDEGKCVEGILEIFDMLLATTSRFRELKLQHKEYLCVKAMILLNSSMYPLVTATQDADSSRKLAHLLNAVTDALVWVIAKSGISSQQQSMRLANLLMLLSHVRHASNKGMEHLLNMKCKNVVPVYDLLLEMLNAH

For `CC(=O)N(/N=C1\Sc2c(C)cccc2C1=O)c1ccccc1Cl` [VPC-16606], the “Displacement of fluorescein labelled PGC1α peptide from ERβ LBD (TR-FRET)” value (ERβ LBD) was “resulted in peptide displacement”, the “Cell growth (Presto Blue viability)” value [1] was “significantly reduce the growth” and the “Effect on PR activity (luciferase)” value ([2]; 50 µM) was “some effect”. For the same molecule, the “Effect on PR activity (luciferase)” value ([2]; doses up to 25 µM) was “does not affect the activity”.
